# Measured values reported in ChEMBL document CHEMBL3885881, “DrugMatrix”.
# Organism: Rattus norvegicus
# Assay: DrugMatrix - Regimen: Daily Repeat
# Assay type: toxicity, organism-based, Sprague-Dawley
# Parameters: regimen Daily Repeat, gender Male, age 6-8 weeks
# Conditions: in vivo, po, route oral GAVAGE, vehicle .5 % CMC; for BASOPHIL / EOSINOPHIL / ERYTHROCYTE COUNT / HEMATOCRIT / HEMOGLOBIN / LEUKOCYTE COUNT / LYMPHOCYTE / MEAN CORPUSCULAR HEMOGLOBIN / MEAN CORPUSCULAR HEMOGLOBIN CONCENTRATION / MEAN CORPUSCULAR VOLUME / MONOCYTE / NEUTROPHIL / PLATELET COUNT: tissue Blood; for ALANINE AMINOTRANSFERASE / ALBUMIN / ALKALINE PHOSPHATASE / ASPARTATE AMINOTRANSFERASE / BLOOD UREA NITROGEN / CHLORIDE / CHOLESTEROL / CREATINE PHOSPHOKINASE / CREATININE / GLUCOSE / PHOSPHORUS / POTASSIUM / SODIUM / TOTAL BILIRUBIN / TOTAL PROTEIN: tissue Plasma
# [1] = 1 mg/kg, 120 h, dose level Low, time 5 day
# [2] = 22 mg/kg, 72 h, dose level High, time 3 day
# [3] = 22 mg/kg, 120 h, dose level High, time 5 day
compound,measurement,setting,value
N=C(N)NC(=O)c1nc(Cl)c(N)nc1N [AMILORIDE],BASOPHIL,[1],0%
same,EOSINOPHIL,[1],0%
same,ERYTHROCYTE COUNT,[1],5.82 x10E6/uL
same,HEMATOCRIT,[1],35.67%
same,HEMOGLOBIN,[1],14.2 G/DL
same,LEUKOCYTE COUNT,[1],12.4 x10E3/uL
same,LYMPHOCYTE,[1],85.33%
same,MEAN CORPUSCULAR HEMOGLOBIN,[1],24.43 pg
same,MEAN CORPUSCULAR HEMOGLOBIN CONCENTRATION,[1],39.93 G/DL
same,MEAN CORPUSCULAR VOLUME,[1],61.3 fL
same,MONOCYTE,[1],2%
same,NEUTROPHIL,[1],12.67%
same,PLATELET COUNT,[1],1224 x10E3/uL
same,ALANINE AMINOTRANSFERASE,[1],35.33 u/L
same,ALBUMIN,[1],3.67 G/DL
same,ALKALINE PHOSPHATASE,[1],386.67 u/L
same,ASPARTATE AMINOTRANSFERASE,[1],62 u/L
same,BLOOD UREA NITROGEN,[1],15 mg/dL
same,CHLORIDE,[1],105.33 MEQ/L
same,CHOLESTEROL,[1],74 mg/dL
same,CREATINE PHOSPHOKINASE,[1],130.33 u/L
same,CREATININE,[1],0.63 mg/dL
same,GLUCOSE,[1],171 mg/dL
same,PHOSPHORUS,[1],10.63 mg/dL
same,POTASSIUM,[1],6.7 MEQ/L
same,SODIUM,[1],150 MEQ/L
same,TOTAL BILIRUBIN,[1],0.5 mg/dL
same,TOTAL PROTEIN,[1],6.1 G/DL
same,BASOPHIL,[2],0%
same,EOSINOPHIL,[2],1%
same,ERYTHROCYTE COUNT,[2],5.75 x10E6/uL
same,HEMATOCRIT,[2],35.27%
same,HEMOGLOBIN,[2],13.6 G/DL
same,LEUKOCYTE COUNT,[2],10.47 x10E3/uL
same,LYMPHOCYTE,[2],85%
same,MEAN CORPUSCULAR HEMOGLOBIN,[2],23.63 pg
same,MEAN CORPUSCULAR HEMOGLOBIN CONCENTRATION,[2],38.63 G/DL
same,MEAN CORPUSCULAR VOLUME,[2],61.17 fL
same,MONOCYTE,[2],1.33%
same,NEUTROPHIL,[2],12.67%
same,PLATELET COUNT,[2],1066.33 x10E3/uL
same,ALANINE AMINOTRANSFERASE,[2],46 u/L
same,ALBUMIN,[2],4.03 G/DL
same,ALKALINE PHOSPHATASE,[2],373.67 u/L
same,ASPARTATE AMINOTRANSFERASE,[2],68.33 u/L
same,BLOOD UREA NITROGEN,[2],23.33 mg/dL
same,CHLORIDE,[2],102.67 MEQ/L
same,CHOLESTEROL,[2],70 mg/dL
same,CREATINE PHOSPHOKINASE,[2],117 u/L
same,CREATININE,[2],0.7 mg/dL
same,GLUCOSE,[2],167 mg/dL
same,PHOSPHORUS,[2],11.37 mg/dL
same,POTASSIUM,[2],7.33 MEQ/L
same,SODIUM,[2],146 MEQ/L
same,TOTAL BILIRUBIN,[2],0.57 mg/dL
same,TOTAL PROTEIN,[2],6.63 G/DL
same,BASOPHIL,[3],0%
same,EOSINOPHIL,[3],0%
same,ERYTHROCYTE COUNT,[3],6.16 x10E6/uL
same,HEMATOCRIT,[3],36.37%
same,HEMOGLOBIN,[3],14.6 G/DL
same,LEUKOCYTE COUNT,[3],18.57 x10E3/uL
same,LYMPHOCYTE,[3],86%
same,MEAN CORPUSCULAR HEMOGLOBIN,[3],23.73 pg
same,MEAN CORPUSCULAR HEMOGLOBIN CONCENTRATION,[3],40.17 G/DL
same,MEAN CORPUSCULAR VOLUME,[3],59.03 fL
same,MONOCYTE,[3],1.33%
same,NEUTROPHIL,[3],11.67%
same,PLATELET COUNT,[3],1100.67 x10E3/uL
same,ALANINE AMINOTRANSFERASE,[3],47.33 u/L
same,ALBUMIN,[3],3.77 G/DL
same,ALKALINE PHOSPHATASE,[3],450.67 u/L
same,ASPARTATE AMINOTRANSFERASE,[3],62 u/L
same,BLOOD UREA NITROGEN,[3],22.33 mg/dL
same,CHLORIDE,[3],104.67 MEQ/L
same,CHOLESTEROL,[3],76 mg/dL
same,CREATINE PHOSPHOKINASE,[3],128.33 u/L
same,CREATININE,[3],0.63 mg/dL
same,GLUCOSE,[3],167.67 mg/dL
same,PHOSPHORUS,[3],10.73 mg/dL
same,POTASSIUM,[3],6.83 MEQ/L
same,SODIUM,[3],148.33 MEQ/L
same,TOTAL BILIRUBIN,[3],0.47 mg/dL
same,TOTAL PROTEIN,[3],6.07 G/DL
